Laboratory results from patent US20060069132A1, “Azolecarboxamide herbicides” (priority 2004, published 2006).

Tests used:
large crabgrass [1] = assay: Test A pre-/postemergence herbicide test; format: in vivo, Digitaria sanguinalis
Method in brief: (§1)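 Greenhouse injury scoring (0–100, complete control = 100) at approximately ten days follows simultaneous pre- and postemergence application. Soil received a directed spray after seeding; seedlings of 2–10 cm at the one- to two-leaf stage were sprayed to runoff.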

giant foxtail [2] = assay: Test A pre-/postemergence herbicide test; format: in vivo, Setaria faberi
Method in brief: as §1

wheat = assay: Test B postemergence herbicide test; format: in vivo, Triticum aestivum; design: key to Wheat plant response rating: 0 = no effect, 100 = complete control; conditions: postemergence, 500 g ai/ha; visual rating, scale 0 (no effect) to 100 (complete control)
Method in brief: (§2)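 Scale 0–100: zero equals no visible effect, 100 complete control, judged by eye relative to controls. Timing: 13 to 15 days in greenhouse post-treatment. Growth stage at spraying: two leaves (paddy) or one to four leaves, 2–18 cm (postemergence).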

morningglory [3] = assay: Test B pre-/postemergence herbicide test; format: in vivo, Ipomoea coccinea; conditions: for Plant response rating, Morningglory: preemergence; for Morningglory plant response rating: postemergence, visual rating, scale 0 (no effect) to 100 (complete control)
Method in brief: (§3)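 Formulation: non-phytotoxic solvent mix with surfactant. Timing: preemergence on seed and postemergence on 2–18 cm plants, applied concurrently. Readout after 13–15 d greenhouse: visual 0–100 control rating against controls.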

giant foxtail [4] = assay: Test B pre-/postemergence herbicide test; format: in vivo, Setaria faberi; conditions: for Plant response rating, Foxtail, Giant: preemergence; for Foxtail, Giant plant response rating: postemergence, visual rating, scale 0 (no effect) to 100 (complete control)
Method in brief: as §3

pigweed = assay: Test B pre-/postemergence herbicide test; format: in vivo, Amaranthus retroflexus; conditions: for Plant response rating, Pigweed: preemergence; for Pigweed plant response rating: postemergence, visual rating, scale 0 (no effect) to 100 (complete control)
Method in brief: as §3

velvetleaf [5] = assay: Test B pre-/postemergence herbicide test; format: in vivo, Abutilon theophrasti; conditions: for Plant response rating, Velvetleaf: preemergence; for Velvetleaf plant response rating: postemergence, visual rating, scale 0 (no effect) to 100 (complete control)
Method in brief: as §3

morningglory [6] = assay: Test A pre-/postemergence herbicide test; format: in vivo, Ipomoea spp.
Method in brief: as §1

cocklebur = assay: Test B pre-/postemergence herbicide test; format: in vivo, Xanthium strumarium; conditions: for Plant response rating, Cocklebur: preemergence; for Cocklebur plant response rating: postemergence, visual rating, scale 0 (no effect) to 100 (complete control)
Method in brief: as §3

rice [7] = assay: Test B pre-/postemergence herbicide test; format: in vivo, Oryza sativa; conditions: preemergence
Method in brief: as §3

Surinam grass = assay: Test B pre-/postemergence herbicide test; format: in vivo, Urochloa decumbens; conditions: for Plant response rating, Surinam Grass: preemergence; for Surinam Grass plant response rating: postemergence, visual rating, scale 0 (no effect) to 100 (complete control)
Method in brief: as §3

wild oat = assay: Test B postemergence herbicide test; format: in vivo, Avena fatua; conditions: postemergence, visual rating, scale 0 (no effect) to 100 (complete control)
Method in brief: as §2

velvetleaf [8] = assay: Test A pre-/postemergence herbicide test; format: in vivo, Abutilon theophrasti
Method in brief: as §1

barnyardgrass [9] = assay: Test A pre-/postemergence herbicide test; format: in vivo, Echinochloa crus-galli
Method in brief: as §1

large crabgrass [10] = assay: Test B pre-/postemergence herbicide test; format: in vivo, Digitaria sanguinalis; conditions: for Plant response rating, Crabgrass, Large: preemergence; for Crabgrass, Large plant response rating: postemergence, visual rating, scale 0 (no effect) to 100 (complete control)
Method in brief: as §3

ducksalad = assay: Test B flooded paddy test; format: in vivo, Heteranthera limosa; conditions: 1000 g ai/ha, visual rating, scale 0 to 100 (0 no effect, 100 complete control), 13 to 15 days
Method in brief: as §2

[11] = test system: small flower umbrella sedge; assay: Test B flooded paddy test; format: in vivo, Cyperus difformis; conditions: 1000 g ai/ha, visual rating, scale 0 to 100 (0 no effect, 100 complete control), 13 to 15 days
Method in brief: as §2

lambsquarters = assay: Test B pre-/postemergence herbicide test; format: in vivo, Chenopodium album; conditions: for Plant response rating, Lambsquarters: preemergence; for Lambsquarters plant response rating: postemergence, visual rating, scale 0 (no effect) to 100 (complete control)
Method in brief: as §3

corn = assay: Test B pre-/postemergence herbicide test; format: in vivo, Zea mays; conditions: for Plant response rating, Corn: preemergence; for Corn plant response rating: postemergence, visual rating, scale 0 (no effect) to 100 (complete control)
Method in brief: as §3

blackgrass = assay: Test B postemergence herbicide test; format: in vivo, Alopecurus myosuroides; conditions: postemergence, visual rating, scale 0 (no effect) to 100 (complete control)
Method in brief: as §2

redroot pigweed = assay: Test A pre-/postemergence herbicide test; format: in vivo, Amaranthus retroflexus
Method in brief: as §1

barnyardgrass [12] = assay: Test B pre-/postemergence herbicide test; format: in vivo, Echinochloa crus-galli; conditions: for Plant response rating, Barnyardgrass: preemergence; for Barnyardgrass plant response rating: postemergence, visual rating, scale 0 (no effect) to 100 (complete control)
Method in brief: as §3

rice [13] = assay: Test B flooded paddy test; format: in vivo, Oryza sativa; conditions: 1000 g ai/ha, visual rating, scale 0 to 100 (0 no effect, 100 complete control), 13 to 15 days
Method in brief: as §2

barnyardgrass [14] = assay: Test B flooded paddy test; format: in vivo, Echinochloa crus-galli; conditions: 1000 g ai/ha, visual rating, scale 0 to 100 (0 no effect, 100 complete control), 13 to 15 days
Method in brief: as §2

[15] = Postemergence, 500 g ai/ha, 0 to 100 scale, 0 no effect, 100 complete control
[16] = Postemergence, 2000 g ai/ha, 0 to 100 scale, 0 no effect, 100 complete control
[17] = Preemergence, 500 g ai/ha, visual rating, 0 to 100 scale (0 no effect, 100 complete control)
[18] = Preemergence, 2000 g ai/ha, visual rating, 0 to 100 scale (0 no effect, 100 complete control)
[19] = 500 g ai/ha, visual rating 0-100, 0 no effect, 100 complete control
[20] = 125 g ai/ha, 0 to 100 scale, 0 is no effect, 100 is complete control
[21] = preemergence, 500 g ai/ha, visual injury, 0 to 100 scale (0 no effect, 100 complete control)

SMILES: CCn1nc(C(C)(C)C)cc1C(=O)Nc1cc(C(=O)NC(C)(C)C)ccn1 [Compound 154]
- Crabgrass, Large plant response rating (large crabgrass [1]; [15]): 20
- Plant response rating, Crabgrass, Large (large crabgrass [1]; [16]): 30
- Crabgrass, Large plant response rating (large crabgrass [1]; [17]): 25
- Crabgrass, Large plant response rating (large crabgrass [1]; [18]): 85
- Foxtail, Giant plant response rating (giant foxtail [2]; [15]): 20
- Plant response rating, Foxtail, Giant (giant foxtail [2]; [16]): 20
- Foxtail, Giant plant response rating (giant foxtail [2]; [17]): 20
- Foxtail, Giant plant response rating (giant foxtail [2]; [18]): 70
- Wheat plant response rating (wheat): 10
- Plant response rating, Morningglory (morningglory [3]; [19]): 0
- Morningglory plant response rating (morningglory [3]; 125 g ai/ha): 60
- Morningglory plant response rating (morningglory [3]; 500 g ai/ha): 70
- Plant response rating, Morningglory (morningglory [3]; [20]): 0
- Plant response rating, Foxtail, Giant (giant foxtail [4]; [19]): 30
- Foxtail, Giant plant response rating (giant foxtail [4]; 125 g ai/ha): 10
- Foxtail, Giant plant response rating (giant foxtail [4]; 500 g ai/ha): 20
- Plant response rating, Foxtail, Giant (giant foxtail [4]; [20]): 0
- Plant response rating, Pigweed (pigweed; [19]): 100
- Pigweed plant response rating (pigweed; 125 g ai/ha): 20
- Pigweed plant response rating (pigweed; 500 g ai/ha): 80
- Plant response rating, Pigweed (pigweed; [20]): 90
- Plant response rating, Velvetleaf (velvetleaf [5]; [19]): 70
- Velvetleaf plant response rating (velvetleaf [5]; 125 g ai/ha): 20
- Velvetleaf plant response rating (velvetleaf [5]; 500 g ai/ha): 60
- Plant response rating, Velvetleaf (velvetleaf [5]; [20]): 70
- Morningglory plant response rating (morningglory [6]; [15]): 20
- Plant response rating, Morningglory (morningglory [6]; [16]): 40
- Morningglory plant response rating (morningglory [6]; [17]): 10
- Morningglory plant response rating (morningglory [6]; [18]): 30
- Plant response rating, Cocklebur (cocklebur; [19]): 10
- Cocklebur plant response rating (cocklebur; 125 g ai/ha): 60
- Cocklebur plant response rating (cocklebur; 500 g ai/ha): 70
- Plant response rating, Cocklebur (cocklebur; [20]): 0
- Plant response rating, Rice (rice [7]; [19]): 0
- Plant response rating, Rice (rice [7]; [20]): 0
- Plant response rating, Surinam Grass (Surinam grass; [19]): 10
- Surinam Grass plant response rating (Surinam grass; 125 g ai/ha): 30
- Surinam Grass plant response rating (Surinam grass; 500 g ai/ha): 60
- Plant response rating, Surinam Grass (Surinam grass; [20]): 0
- Oat, Wild plant response rating (wild oat; 125 g ai/ha): 10
- Oat, Wild plant response rating (wild oat; 500 g ai/ha): 30
- Velvetleaf plant response rating (velvetleaf [8]; [15]): 10
- Plant response rating, Velvetleaf (velvetleaf [8]; [16]): 30
- Velvetleaf plant response rating (velvetleaf [8]; [18]): 60
- Velvetleaf plant response rating (velvetleaf [8]; [21]): 15
- Barnyardgrass plant response rating (barnyardgrass [9]; [15]): 50
- Plant response rating, Barnyardgrass (barnyardgrass [9]; [16]): 90
- Barnyardgrass plant response rating (barnyardgrass [9]; [17]): 30
- Barnyardgrass plant response rating (barnyardgrass [9]; [18]): 95
- Plant response rating, Crabgrass, Large (large crabgrass [10]; [19]): 80
- Crabgrass, Large plant response rating (large crabgrass [10]; 125 g ai/ha): 10
- Crabgrass, Large plant response rating (large crabgrass [10]; 500 g ai/ha): 20
- Plant response rating, Crabgrass, Large (large crabgrass [10]; [20]): 50
- Ducksalad plant response rating (ducksalad): 80
- Sedge, Umbrella plant response rating [11]: 20
- Plant response rating, Lambsquarters (lambsquarters; [19]): 90
- Lambsquarters plant response rating (lambsquarters; 125 g ai/ha): 80
- Lambsquarters plant response rating (lambsquarters; 500 g ai/ha): 90
- Plant response rating, Lambsquarters (lambsquarters; [20]): 70
- Plant response rating, Corn (corn; [19]): 0
- Corn plant response rating (corn; 125 g ai/ha): 10
- Corn plant response rating (corn; 500 g ai/ha): 20
- Plant response rating, Corn (corn; [20]): 0
- Blackgrass plant response rating (blackgrass; 125 g ai/ha): 10
- Blackgrass plant response rating (blackgrass; 500 g ai/ha): 10
- Pigweed plant response rating (redroot pigweed; [15]): 90
- Plant response rating, Pigweed (redroot pigweed; [16]): 100
- Pigweed plant response rating (redroot pigweed; [18]): 100
- Pigweed plant response rating (redroot pigweed; [21]): 85
- Plant response rating, Barnyardgrass (barnyardgrass [12]; [19]): 80
- Barnyardgrass plant response rating (barnyardgrass [12]; 125 g ai/ha): 20
- Barnyardgrass plant response rating (barnyardgrass [12]; 500 g ai/ha): 50
- Plant response rating, Barnyardgrass (barnyardgrass [12]; [20]): 10
- Rice plant response rating (rice [13]): 20
- Barnyardgrass plant response rating (barnyardgrass [14]): 50
